A value given as a limit tells only on which side of the number the result lay.

Assay [1] deals with T1, Alpha-2A adrenergic receptor (Homo sapiens, UniProt P08913).
T1 sequence (P08913 whole entry): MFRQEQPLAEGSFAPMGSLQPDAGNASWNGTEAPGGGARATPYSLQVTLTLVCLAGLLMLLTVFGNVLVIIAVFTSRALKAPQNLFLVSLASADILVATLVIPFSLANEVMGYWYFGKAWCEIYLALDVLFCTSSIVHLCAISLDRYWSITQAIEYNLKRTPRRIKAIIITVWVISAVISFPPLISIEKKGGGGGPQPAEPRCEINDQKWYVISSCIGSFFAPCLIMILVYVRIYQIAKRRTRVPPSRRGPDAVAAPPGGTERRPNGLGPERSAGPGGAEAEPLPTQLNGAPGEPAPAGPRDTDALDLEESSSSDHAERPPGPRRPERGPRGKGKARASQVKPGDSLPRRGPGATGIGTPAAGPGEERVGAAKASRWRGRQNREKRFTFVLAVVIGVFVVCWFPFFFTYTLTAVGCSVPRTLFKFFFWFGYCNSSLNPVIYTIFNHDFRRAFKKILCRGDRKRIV
It counts as functional, cell-based.

The target in assay [2] is Kappa-type opioid receptor (Homo sapiens, UniProt P41145).
Assay [3] has as its target T2, Prostaglandin G/H synthase 1 (Rattus norvegicus, UniProt Q63921).
T2 sequence (Q63921 whole entry): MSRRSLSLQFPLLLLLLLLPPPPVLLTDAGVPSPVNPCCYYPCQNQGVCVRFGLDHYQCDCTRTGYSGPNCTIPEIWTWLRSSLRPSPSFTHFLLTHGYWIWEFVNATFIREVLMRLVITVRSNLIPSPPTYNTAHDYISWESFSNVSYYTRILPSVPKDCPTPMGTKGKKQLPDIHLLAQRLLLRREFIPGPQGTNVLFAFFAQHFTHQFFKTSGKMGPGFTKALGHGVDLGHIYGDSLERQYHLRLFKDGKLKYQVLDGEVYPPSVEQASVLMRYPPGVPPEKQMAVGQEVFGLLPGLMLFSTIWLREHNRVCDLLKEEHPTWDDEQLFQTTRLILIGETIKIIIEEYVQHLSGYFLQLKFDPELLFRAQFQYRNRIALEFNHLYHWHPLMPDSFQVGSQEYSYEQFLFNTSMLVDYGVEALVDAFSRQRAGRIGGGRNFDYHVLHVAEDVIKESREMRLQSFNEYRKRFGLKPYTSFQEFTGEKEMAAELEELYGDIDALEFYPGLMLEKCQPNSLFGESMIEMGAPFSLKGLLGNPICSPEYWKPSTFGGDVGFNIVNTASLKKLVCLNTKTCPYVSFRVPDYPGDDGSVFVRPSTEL
In kind it is functional.

Another assay has as its target T3, Adenosine receptor A1 (Homo sapiens, UniProt P30542).
T3 sequence (P30542 whole entry): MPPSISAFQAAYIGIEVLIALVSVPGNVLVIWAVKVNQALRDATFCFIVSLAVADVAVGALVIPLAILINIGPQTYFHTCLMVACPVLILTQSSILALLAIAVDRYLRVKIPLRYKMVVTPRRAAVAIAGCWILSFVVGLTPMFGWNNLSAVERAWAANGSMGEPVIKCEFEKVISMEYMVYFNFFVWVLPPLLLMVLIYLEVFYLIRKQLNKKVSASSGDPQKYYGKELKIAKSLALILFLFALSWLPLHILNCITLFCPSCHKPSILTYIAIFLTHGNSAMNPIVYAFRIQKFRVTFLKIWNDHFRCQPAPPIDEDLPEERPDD

For a further assay, the target named is T4, B2 bradykinin receptor (Homo sapiens, UniProt P30411).
T4 sequence (P30411 whole entry): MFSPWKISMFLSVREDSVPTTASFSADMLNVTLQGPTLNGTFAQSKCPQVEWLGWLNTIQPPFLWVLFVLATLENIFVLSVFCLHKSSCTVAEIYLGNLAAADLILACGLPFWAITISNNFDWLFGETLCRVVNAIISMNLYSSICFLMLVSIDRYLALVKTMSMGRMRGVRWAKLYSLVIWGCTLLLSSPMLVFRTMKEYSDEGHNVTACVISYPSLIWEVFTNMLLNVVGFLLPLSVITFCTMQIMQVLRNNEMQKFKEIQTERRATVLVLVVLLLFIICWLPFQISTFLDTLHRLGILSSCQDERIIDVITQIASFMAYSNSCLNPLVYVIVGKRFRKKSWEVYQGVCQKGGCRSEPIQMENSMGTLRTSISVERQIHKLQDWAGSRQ

Assay [4] deals with Delta-type opioid receptor (Homo sapiens, UniProt P41143).
In assay [5] the target is 5-hydroxytryptamine receptor 2B (Homo sapiens, UniProt P41595). It counts as functional, cell-based.
The target in assay [6] is T5, 5-hydroxytryptamine receptor 1A (Homo sapiens, UniProt P08908).
T5 sequence (P08908 whole entry): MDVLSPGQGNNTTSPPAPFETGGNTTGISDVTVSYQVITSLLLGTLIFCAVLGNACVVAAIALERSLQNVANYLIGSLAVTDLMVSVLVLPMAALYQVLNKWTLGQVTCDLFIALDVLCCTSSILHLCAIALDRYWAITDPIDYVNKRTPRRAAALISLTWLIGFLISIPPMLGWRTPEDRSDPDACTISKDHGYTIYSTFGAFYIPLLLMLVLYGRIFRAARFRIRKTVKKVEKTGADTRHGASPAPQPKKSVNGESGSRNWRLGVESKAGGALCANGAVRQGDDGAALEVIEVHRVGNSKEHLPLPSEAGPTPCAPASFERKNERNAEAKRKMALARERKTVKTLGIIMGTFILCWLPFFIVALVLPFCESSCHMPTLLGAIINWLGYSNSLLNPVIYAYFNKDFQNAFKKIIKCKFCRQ
It counts as functional, cell-based.

For assay [7], the target named is T6, Muscarinic acetylcholine receptor M2 (Homo sapiens, UniProt P08172).
T6 sequence (P08172 whole entry): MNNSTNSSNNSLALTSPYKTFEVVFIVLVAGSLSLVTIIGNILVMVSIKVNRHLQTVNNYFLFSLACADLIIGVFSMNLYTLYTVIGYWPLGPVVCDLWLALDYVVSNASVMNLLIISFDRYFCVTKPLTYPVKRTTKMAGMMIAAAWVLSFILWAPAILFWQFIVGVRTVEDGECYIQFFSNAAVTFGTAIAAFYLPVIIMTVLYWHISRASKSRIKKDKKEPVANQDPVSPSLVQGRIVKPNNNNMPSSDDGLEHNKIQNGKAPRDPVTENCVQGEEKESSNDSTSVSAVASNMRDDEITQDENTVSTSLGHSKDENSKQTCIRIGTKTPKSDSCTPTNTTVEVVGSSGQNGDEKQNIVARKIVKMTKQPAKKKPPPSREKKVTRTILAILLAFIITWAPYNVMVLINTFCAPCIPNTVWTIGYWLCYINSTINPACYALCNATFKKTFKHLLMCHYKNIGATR
It counts as functional, cell-based.

In assay [8] the target is Voltage-dependent L-type calcium channel subunit alpha-1C (Rattus norvegicus, UniProt P22002). It counts as functional.
Also: assay procedure not described here.

Delta-type opioid receptor, sequence (P41143 whole entry): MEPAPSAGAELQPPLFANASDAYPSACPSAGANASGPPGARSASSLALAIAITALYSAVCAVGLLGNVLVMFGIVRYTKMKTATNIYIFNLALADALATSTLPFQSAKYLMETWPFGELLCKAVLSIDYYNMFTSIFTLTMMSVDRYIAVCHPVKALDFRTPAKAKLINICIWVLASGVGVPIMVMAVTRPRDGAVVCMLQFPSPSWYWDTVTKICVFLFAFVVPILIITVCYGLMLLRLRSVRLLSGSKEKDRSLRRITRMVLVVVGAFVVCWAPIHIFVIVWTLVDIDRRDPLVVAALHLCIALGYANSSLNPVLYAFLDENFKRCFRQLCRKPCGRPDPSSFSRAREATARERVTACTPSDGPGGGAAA
Kappa-type opioid receptor, sequence (P41145 whole entry): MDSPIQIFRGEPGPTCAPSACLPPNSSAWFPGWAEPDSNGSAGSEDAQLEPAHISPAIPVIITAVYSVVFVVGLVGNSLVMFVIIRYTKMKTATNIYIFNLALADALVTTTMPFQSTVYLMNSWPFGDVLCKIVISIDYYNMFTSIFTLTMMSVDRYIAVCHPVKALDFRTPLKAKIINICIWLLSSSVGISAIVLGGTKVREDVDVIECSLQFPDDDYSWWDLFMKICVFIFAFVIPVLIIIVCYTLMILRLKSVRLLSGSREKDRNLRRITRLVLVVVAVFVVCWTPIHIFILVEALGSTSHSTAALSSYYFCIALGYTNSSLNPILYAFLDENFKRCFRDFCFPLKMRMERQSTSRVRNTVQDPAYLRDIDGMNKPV
5-hydroxytryptamine receptor 2B, sequence (P41595 whole entry): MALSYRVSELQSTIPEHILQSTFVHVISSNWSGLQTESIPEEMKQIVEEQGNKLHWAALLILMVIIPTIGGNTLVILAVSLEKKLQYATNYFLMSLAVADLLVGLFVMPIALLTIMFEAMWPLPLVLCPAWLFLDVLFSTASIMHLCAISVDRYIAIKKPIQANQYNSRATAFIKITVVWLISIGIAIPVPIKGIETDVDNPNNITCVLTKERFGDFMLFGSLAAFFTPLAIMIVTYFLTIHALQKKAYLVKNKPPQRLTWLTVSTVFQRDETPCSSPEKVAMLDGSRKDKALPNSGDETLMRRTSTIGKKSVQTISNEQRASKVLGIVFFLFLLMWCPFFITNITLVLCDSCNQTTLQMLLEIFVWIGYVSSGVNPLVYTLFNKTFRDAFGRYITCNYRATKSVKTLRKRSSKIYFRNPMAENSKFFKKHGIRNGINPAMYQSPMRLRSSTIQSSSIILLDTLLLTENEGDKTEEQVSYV
Voltage-dependent L-type calcium channel subunit alpha-1C, sequence (P22002 whole entry): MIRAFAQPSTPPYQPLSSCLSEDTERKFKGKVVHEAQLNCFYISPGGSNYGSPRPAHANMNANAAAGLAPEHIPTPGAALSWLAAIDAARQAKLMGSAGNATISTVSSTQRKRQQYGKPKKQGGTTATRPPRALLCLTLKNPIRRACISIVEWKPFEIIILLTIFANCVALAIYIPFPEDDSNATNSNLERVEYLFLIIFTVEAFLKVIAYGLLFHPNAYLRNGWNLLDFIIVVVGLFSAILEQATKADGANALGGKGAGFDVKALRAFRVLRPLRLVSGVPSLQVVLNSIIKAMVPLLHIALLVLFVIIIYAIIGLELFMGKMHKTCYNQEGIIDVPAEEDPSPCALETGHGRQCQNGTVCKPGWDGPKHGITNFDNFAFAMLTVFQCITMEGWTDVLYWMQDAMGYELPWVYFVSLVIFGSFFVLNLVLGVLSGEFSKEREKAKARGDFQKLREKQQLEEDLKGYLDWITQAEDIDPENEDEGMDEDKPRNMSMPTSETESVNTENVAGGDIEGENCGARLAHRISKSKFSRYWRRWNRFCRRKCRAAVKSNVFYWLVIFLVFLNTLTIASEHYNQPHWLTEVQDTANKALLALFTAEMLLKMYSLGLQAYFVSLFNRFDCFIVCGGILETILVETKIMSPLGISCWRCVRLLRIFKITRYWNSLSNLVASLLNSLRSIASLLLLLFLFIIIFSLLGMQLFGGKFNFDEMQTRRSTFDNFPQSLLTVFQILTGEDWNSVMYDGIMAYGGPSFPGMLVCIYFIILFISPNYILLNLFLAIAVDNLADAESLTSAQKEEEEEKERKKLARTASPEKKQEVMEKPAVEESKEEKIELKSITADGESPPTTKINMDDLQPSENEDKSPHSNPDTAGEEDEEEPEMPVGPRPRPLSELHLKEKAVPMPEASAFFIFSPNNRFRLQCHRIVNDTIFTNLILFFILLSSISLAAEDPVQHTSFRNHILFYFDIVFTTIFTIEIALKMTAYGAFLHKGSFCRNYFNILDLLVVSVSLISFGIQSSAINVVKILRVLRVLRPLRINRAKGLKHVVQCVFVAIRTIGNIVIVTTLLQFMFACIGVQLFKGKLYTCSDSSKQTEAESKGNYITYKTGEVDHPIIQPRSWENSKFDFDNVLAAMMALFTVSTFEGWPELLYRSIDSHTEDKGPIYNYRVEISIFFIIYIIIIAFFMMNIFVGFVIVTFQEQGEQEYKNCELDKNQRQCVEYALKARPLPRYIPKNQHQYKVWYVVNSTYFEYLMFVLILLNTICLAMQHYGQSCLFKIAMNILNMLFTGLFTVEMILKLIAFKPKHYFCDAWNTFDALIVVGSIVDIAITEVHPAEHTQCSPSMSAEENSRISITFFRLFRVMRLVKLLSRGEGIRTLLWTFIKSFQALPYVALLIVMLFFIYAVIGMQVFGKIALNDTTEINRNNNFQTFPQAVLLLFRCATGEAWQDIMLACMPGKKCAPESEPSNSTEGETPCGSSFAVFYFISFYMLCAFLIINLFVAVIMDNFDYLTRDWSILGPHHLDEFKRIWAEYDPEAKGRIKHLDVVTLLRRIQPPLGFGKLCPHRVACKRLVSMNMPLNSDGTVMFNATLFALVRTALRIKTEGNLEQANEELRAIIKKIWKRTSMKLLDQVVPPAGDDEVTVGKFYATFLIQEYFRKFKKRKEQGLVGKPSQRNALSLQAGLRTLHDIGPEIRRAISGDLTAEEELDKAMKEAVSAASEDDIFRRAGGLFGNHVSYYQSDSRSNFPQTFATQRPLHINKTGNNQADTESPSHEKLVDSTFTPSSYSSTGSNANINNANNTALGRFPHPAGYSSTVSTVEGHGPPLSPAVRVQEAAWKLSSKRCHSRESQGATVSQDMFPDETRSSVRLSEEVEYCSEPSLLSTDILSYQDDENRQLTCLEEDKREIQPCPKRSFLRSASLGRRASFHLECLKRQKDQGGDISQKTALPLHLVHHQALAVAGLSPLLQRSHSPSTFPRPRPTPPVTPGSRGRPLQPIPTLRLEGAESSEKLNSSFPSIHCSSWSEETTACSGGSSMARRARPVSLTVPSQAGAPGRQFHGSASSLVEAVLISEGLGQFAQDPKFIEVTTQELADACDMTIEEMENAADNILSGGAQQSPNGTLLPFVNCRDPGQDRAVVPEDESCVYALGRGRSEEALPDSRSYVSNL

In the case of `O=C(CCCCC(=O)Nc1c(I)cc(I)c(C(=O)O)c1I)Nc1c(I)cc(I)c(C(=O)O)c1I` [IODIPAMIDE], the AC50 in assay [1] was more than 10 µM; in assay [2] it was more than 10 µM; in assay [3], more than 10 µM; on Adenosine receptor A1, more than 10 µM; on B2 bradykinin receptor it was more than 10 µM; in assay [4] it was more than 30 µM. Moreover, the AC50 in assay [5], in assay [6], in assay [7] and in [8] was more than 10 µM throughout.

On to TOCOFERSOLAN, for which the AC50 in [1] is more than 30 µM; in assay [2], more than 30 µM; in assay [3], 4 µM; on Adenosine receptor A1, more than 30 µM; on B2 bradykinin receptor, more than 30 µM; in assay [4] it was more than 30 µM. Also, the concentration at half-maximal activity (AC50) in assay [5], in assay [6], in [7] and in [8] was more than 30 µM throughout.

`CN1C(=O)CC(=O)N(c2ccccc2)c2cc(Cl)ccc21` [CLOBAZAM]: the AC50 in [1] is more than 10 µM; in assay [2], 14.1 µM; in [3], more than 10 µM; on Adenosine receptor A1, more than 10 µM; on B2 bradykinin receptor, more than 10 µM; in assay [4] it was more than 30 µM. The AC50 in assay [5], in [6], in assay [7] and in assay [8] was more than 10 µM in each case.

Turning to `O=C(C[S+]([O-])C(c1ccccc1)c1ccccc1)NO` (stereo not given), the AC50 (in [1]; in assay [2]; in assay [3]; at Adenosine receptor A1; at B2 bradykinin receptor; in [4]) was more than 30 µM throughout. Further, the concentration at half-maximal activity (AC50) in assay [5], in assay [6], in [7] and in [8] was more than 30 µM in each case.

As to `COc1ccccc1OCC(O)COC(N)=O` (stereo not given) [METHOCARBAMOL], the AC50 in assay [1] is more than 10 µM; in [2], more than 10 µM; in [3], more than 10 µM; on Adenosine receptor A1 it was more than 10 µM; on B2 bradykinin receptor it was more than 10 µM; in assay [4], more than 30 µM. Besides, the concentration at half-maximal activity (AC50) in [5], in assay [6], in [7] and in [8] was more than 10 µM in each case.

Regarding `COc1c(C)c2c(c(O)c1C/C=C(\C)CCC(=O)OCCN1CCOCC1)C(=O)OC2` [MYCOPHENOLATE MOFETIL], the AC50 (in assay [1]; in [2]; on Adenosine receptor A1; at B2 bradykinin receptor; in [4]; in [5]) was more than 30 µM throughout. Besides, the AC50 in assay [6], in assay [7] and in assay [8] was more than 30 µM throughout.

On to `O=C1NCCN1CCN1CCC(c2cn(-c3ccc(F)cc3)c3ccc(Cl)cc23)CC1` [SERTINDOLE], for which the AC50 is 3.7 µM in assay [2]; more than 30 µM in [3]; more than 30 µM at Adenosine receptor A1; more than 30 µM at B2 bradykinin receptor; more than 30 µM in assay [4]; more than 30 µM in [5]. The AC50 in assay [7] and in assay [8] was more than 30 µM throughout.

Consider `CC(C)c1c(C(=O)Nc2ccccc2)c(-c2ccccc2)c(-c2ccc(F)cc2)n1CC[C@@H](O)C[C@@H](O)CC(=O)O` [ATORVASTATIN], for which the AC50 in assay [1] is more than 10 µM; in [2], more than 10 µM; in assay [3], more than 30 µM; on Adenosine receptor A1, more than 30 µM; on B2 bradykinin receptor, more than 30 µM; in [4] it was more than 30 µM. Besides, the AC50 in assay [6] and in assay [8] was more than 10 µM in each case.

As to `Cc1c(C(=O)Nc2ccc(N3C[C@@H](C)O[C@@H](C)C3)nc2)cccc1-c1ccc(OC(F)(F)F)cc1` [SONIDEGIB], the half-maximal activity concentration (AC50) in assay [2] is more than 10 µM; in assay [3] it was more than 30 µM; on Adenosine receptor A1, more than 30 µM; on B2 bradykinin receptor, more than 30 µM; in assay [4], more than 10 µM; in assay [8] it was more than 10 µM.

Turning to `CCC(C(=O)O)c1ccc(CC(C)C)cc1` (stereo not given) [BUTIBUFEN], the half-maximal activity concentration (AC50) (in assay [1]; in assay [2]; at Adenosine receptor A1; on B2 bradykinin receptor; in [4]; in assay [5]) was more than 30 µM in each case. Further, the AC50 in assay [6], in assay [7] and in assay [8] was more than 30 µM throughout.

`CCNC(C)Cc1cccc(C(F)(F)F)c1` (stereo not given) [FENFLURAMINE]: the concentration at half-maximal activity (AC50) is 13.4 µM in assay [2]; more than 30 µM in assay [3]; more than 30 µM on Adenosine receptor A1; more than 30 µM at B2 bradykinin receptor; more than 30 µM in [4]; more than 30 µM in [7]. In addition, the AC50 in assay [8] was more than 10 µM.

With `CN1CCc2cccc3c2[C@H]1Cc1ccc(O)c(O)c1-3` [APOMORPHINE], the AC50 in assay [1] is more than 10 µM; in assay [2], 19.4 µM; in [3], 20.4 µM; at Adenosine receptor A1 it was more than 30 µM; on B2 bradykinin receptor, more than 30 µM; in assay [4] it was more than 30 µM. The AC50 in [5], in assay [7] and in assay [8] was more than 10 µM in each case.

As for `C[C@H]1C[C@@H]2[C@H]([C@@H](O)C[C@@]3(C)[C@H]2CC[C@]3(O)C(=O)COC(=O)CCC(=O)O)[C@@]2(C)C=CC(=O)C=C12` [METHYLPREDNISOLONE HEMISUCCINATE], the AC50 (in assay [1]; in assay [2]; in [3]; at Adenosine receptor A1; at B2 bradykinin receptor; in assay [4]) was more than 30 µM in each case. The AC50 in [5], in [6] and in assay [7] was more than 30 µM each time.

One may read the AC50 as the midpoint of the concentration-response curve, whichever way the signal moves.

The record behind these values is ChEMBL document CHEMBL5291721, “A preclinical secondary pharmacology resource illuminates target-adverse drug reaction associations of marketed drugs” (Nat Commun, 2023).
